According to patent US20100035822A1, “PROLINE-RICH PEPTIDES, PHARMACEUTICAL COMPOSITION, USE OF ONE OR MORE PEPTIDES AND METHOD OF TREATMENT” (priority 2006, published 2010):

How the values were obtained:
[1] = test system: renal nitric oxide synthase (NOS); test: Activation of kidney NOS in mice (3H-arginine to 3H-citrulline conversion); type: in vivo, mouse
Method: Male Swiss albinos weighing 22-25 g were injected intraperitoneally with: (1) 50 μl 0.9% NaCl (basal level control), or with 0.9% NaCl supplemented with LPS (2 mg/Kg) (positive control); (2) SEQ ID NO 8 (0.21, 0.91, and 3.47 mg/Kg); (3) SEQ ID NO 8 (0.91 mg/Kg) injected into animals pre-treated via intraperitoneally with L-NAME (3 mg/Kg for 1 h); (4) SEQ ID NO 8 (0.91 mg/Kg) injected into animals pre-treated via intraperitoneally with HOE140 (10 μg/Kg for 1 h); (5) captopril (0.21, 0.91, and 3.47 mg/Kg). After 5, 15, 30, 60, 120, and 180 min, animals were killed, their kidneys removed and stored at −70° C. Animals of group 3 and 4 were killed 30 minutes after administration of the oligopeptide.
NOS activity was measured according to Bredt and Snyder [Bredt D S and Snyder S H. Isolation of nitric oxide synthetase, a calmodulin-requiring enzyme. Proc. Natl. Acad. Sci. USA, 87, 682-685, 1990], and is based on estimating the enzymatic activity of the conversion of L-arginine into L-citrulline using ^3H-arginine as a reference for the conversion.
The kidneys were minced in homogenizing buffer, pH 7.4 (20 mM HEPES, 0.32 M saccharose, 1 mM DTT, 0.1 mM EDTA, 1 mM PMSF), and sonicated. Protein dosage was performed according to Bradford (1976), followed by a chromatography step in a 300 μL Dowex 50WX8-400 column.
For the enzymatic assay, 80 μg total protein from each sample were incubated for 60 minutes at 37° C. in 200 μL buffer (30 mM HEPES, 1 mM EDTA, 1.25 mM CaCl2, 1 mM NADPH, 10 μg/mL calmodulin, 4 μM FAD, 4 μM FMN, 25 μM BH4, 120 nM arginine, 0.5 μCi ^3H-arginine). The reaction was stopped by the addition of 1 ml 20 mM HEPES, and incubation in ice bath. ^3H-citrulline was separated from ^3H-arginine by ion-exchange chromatography in a 300 μL Dowex 50WX8-400 column. Radioactivity of the eluates was measured in a beta-counter. After converting cpm (counts per minute) into dpm (disintegration per minute), the specific activity of the nitric oxide synthase (NOS) was calculated using the following equation: […]

[2] = biological target: T1, argininosuccinate synthase (AsS) (Mus musculus, UniProt P16460); test: Potentiation of argininosuccinate synthase activity (phosphate generated from ATP); type: biochemical
T1 construct: Cytosolic and membrane fractions of the renal extract (100 mg/ml total protein) were applied to separate columns; from tissue; host or cells: Balb-c mouse kidney, cytosolic and membrane fractions
T1 sequence (P16460 1-412): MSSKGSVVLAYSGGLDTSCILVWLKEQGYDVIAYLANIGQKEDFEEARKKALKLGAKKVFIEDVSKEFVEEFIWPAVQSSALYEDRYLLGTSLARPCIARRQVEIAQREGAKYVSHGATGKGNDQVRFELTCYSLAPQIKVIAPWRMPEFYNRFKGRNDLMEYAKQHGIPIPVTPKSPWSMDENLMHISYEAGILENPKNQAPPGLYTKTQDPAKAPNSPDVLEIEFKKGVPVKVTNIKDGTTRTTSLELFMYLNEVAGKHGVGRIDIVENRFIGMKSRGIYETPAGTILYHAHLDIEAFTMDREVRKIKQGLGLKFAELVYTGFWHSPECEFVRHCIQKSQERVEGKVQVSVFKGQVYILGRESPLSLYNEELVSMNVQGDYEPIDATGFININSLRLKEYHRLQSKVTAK
Method: Activation of the AsS enzyme of Example 3 by peptide SEQ ID NO 8 was quantified in vitro according to Hao et al. [Hao G., Xie L., Gross S. S. Argininosuccinate synthetase is reversibly inactivated by S-nitrosylation in vitro and in vivo. J. Biol. Chem., 279:36192-36200 (2004)]. This method is based on measuring the quantity of phosphate generated from ATP, when pyrophosphatase is added to the reaction medium. Since the activity of the pyrophosphatase relates directly to the enzymatic activity of the AsS, the quantity of generated pyrophosphate is a direct measurement of the AsS activity.
The AsS enzyme (1 μg) was added to the reaction mixture containing 20 mM Tris-HCl, pH 7.8, 2 mM ATP, 2 mM citrulline, 2 mM aspartate, 6 mM MgCl2, 20 mM KCl, and 0.2 units of pyrophosphatase in a final volume of 200 μL in 96 well microplates. Increasing quantities of the SEQ ID NO 8 peptide (0.5, 1 to 8 μM) were added, and samples were incubated at 37° C. for 60 minutes. The reaction was interrupted by the addition of 200 μL of ammonium molybdate buffer (10 mM ascorbic acid, 2.5 mM ammonium molybdate, 2% sulphuric acid). Resulting phosphate was determined in the samples by spectrophotometry (absorbance at 650 nm), using a standard curve obtained with inorganic phosphate.
The production rate of phosphate (enzymatic activity of the AsS) was activated up to approximately 2.5 fold upon addition of 2 μM peptide SEQ ID NO 8. […] Accessibility of endothelial and inducible nitric oxide synthase to the intracellular citrulline-arginine regeneration pathway. Biochem. Pharmacol. 69: 97-104, 2005].

C6 cells from rat glioma = test: NO production in C6 glia cells; type: cell-based
Method: All reagents for cellular biology experiments were purchased from Invitrogen. C6 cells from rat glioma were cultured in DMEM, supplemented with 10% fetal bovine serum, streptomycin sulphate (100 μg/ml), and penicillin G (100 U/ml). Cultures were kept at 37° C. in 5% CO2 atmosphere. 24 hours before peptides were added, cells were transferred to a 24 well plate (1.5×10^5 cells/ml/well), containing DMEM medium lacking serum. Peptides were added to the cultures to a final concentration of 1 μM, and incubated for 24 hours at 37° C. in 5% CO2 atmosphere. The medium was collected and stored at −80° C.
NO concentration was determined in 1 ml of culture medium, which was incubated with N-ethylmaleimide at a final concentration of 10 mM, for 24 hours. The supernatant of a centrifugation at 1.000 rpm was injected in the NOA equipment (Nitric Oxide Analyser-Sievers) for NO quantification.

Compound | activation of mouse renal NOS activity ([1]; approximately 1 mg/Kg body weight) | activation of the production rate of phosphate (enzymatic activity of the AsS) ([2]; 2 μM peptide, AsS 1-8 μg) | activation of AsS ([2]; maximum activation) | rank of efficiency in activating nitrite production (C6 cells from rat glioma) | renal NOS activity after injection ([1]; 0.2-3.5 mg/Kg of body weight)
<ENWPHPQIPP [SEQ ID NO 8] | approximately 60% | approximately 2.5 fold | 70-80% | the most efficient | –
CC(CS)C(=O)N1CCC[C@@H]1C(=O)O (stereo partly drawn) [captopril, D-3-mercapto-2-methyl-1-oxopropyl-L-proline, reference compound] | – | – | – | – | No significant renal NOS activity
